Laboratory results from patent publication US20110251379A1, “COMPOUNDS USEFUL FOR TREATING NEURODEGENERATIVE DISORDERS” (Satori Pharmaceuticals, Inc., priority 2010, published 2011).
Where two headings read alike, the source gives them in different places.

Test system: amyloid-beta (1-42) peptide
Experiment: ELISA assay of amyloid-beta (1-42) in conditioned media of 2B7 cells
Assay type: cell-based
Details: for IC50: Aβ-42, 2B7 cells, 5 hours, read-out: IC50 range
Experimental: Compounds of the present invention, and extracts comprising said compounds, may be assayed as inhibitors of amyloid-beta (1-42) peptide in vitro or in vivo. Such assay methods are described in detail in U.S. Pat. No. 6,649,196, the entirety of which is hereby incorporated herein by reference.
In certain embodiments, provided compounds of the present invention, and extracts comprising said compounds, were assayed as inhibitors of amyloid-beta (1-42) peptide in vitro using an ELISA assay.
Capture Plate Prep: • 6E10 was diluted to 5.0 ug/mL in 100 mM NaHCO3 pH 8.2 (10 ug aliquot per 2 mL buffer); • 100 uL capture antibody solution was added to wells of 96 well plate; • Incubated overnight at 4° C. sealed; • Aspirated off capture antibody; and • Blocked with 250 uL of Blocking Buffer for 2-4 hours at rt sealed.
Conditioned Media: • Cultured 2B7 cells in 96 well plate with 250 uL of media per well until confluent; • Prepared serial dilution of compounds in DMSO at 100× the final desired concentration; • Washed wells with 2B7 cells lx with 250 uL of media; • Diluted DMSO stocks 1:100 into media and mix; and • Added 250 μL of media containing compounds (1% DMSO) to wells with 2B7 cells for 5 hours at 37° C.
Elisa Sample Prep: • Diluted conditioned media 1:2 into blocking buffer; • NOTE: If assaying for A-Beta 1-40 or total A-Beta, then diluted above sample 1:10 with a 50/50 mixture of non-conditioned media containing 1% DMSO and blocking buffer.
Standard Curve Sample Prep: • Diluted appropriate A-Beta peptide stock (stored in 1% NH4OH) to 200 μg/mL in blocking buffer; • Prepared a 1:2 serial dilution from the 200 μg/mL sample (150 μL into 150 μL blocking buffer); and • Added equal volume of standard curve samples to non-conditioned media with 1% DMSO.
Overnight Sample Incubation: • Aspirated blocking buffer from blocked plate; • Added 100 μL of samples to wells of plate (samples will be 50% media with 1% DMSO and 50% blocking buffer; and • Incubated overnight at 4° C. sealed.
Addition of Detection Antibody: • Aspirated off samples, wash 2× with 250 μL blocking buffer; and • Added 100 μL detection antibody labeled with HRP at 0.25 ug/mL in blocking buffer for 4 hours at room temperature sealed.
Final Wash and Readout: • Aspirated wells, wash 5× with 250 μL of PBS-T (2 minutes each wash at 30 RPM); • Added 100 μL TMB for 20 minutes; • Added 100 μL of 1M H3PO4; and • Read at 450 nm.
Coating Buffer (100 mM NaHCO3 pH 8.2)
PBS-T (PBS with 0.05% Tween-20)
Blocking Buffer (1% BSA in PBS-T)

[1] = Aβ-42, 100 umol/L, read-out: % Inhibition (range)

| Structure (SMILES) | IC50 (5 h) [µM] | IC50 [µM] | further results |
| --- | --- | --- | --- |
| CC(=O)O[C@@H]([C@H]1C[C@@H](C)[C@H]2[C@H](O1)[C@H](O)[C@@]1(C)[C@@H]3CC[C@H]4C(C)(C)C(OC(N)=O)CC[C@@]45C[C@@]35CC[C@]21C)C(C)(C)O (stereo partly drawn) [drawing 964] | ≤ 1 | – | – |
| CC(=O)N(Cc1cc(F)cc(F)c1)CC1CC(C)C2C(O1)C(O)C1(C)C3CCC4C(C)(C)C(OC(=O)c5ccccn5)CCC45CC35CCC21C (stereo not drawn) | – | 1 to 10 | – |
| CC1CC(CN(Cc2ccccc2)C(=O)N(C)C)OC2C1C1(C)CCC34CC35CCC(O)C(C)(C)C5CCC4C1(C)C2O (stereo not drawn) | – | > 10 | – |
| CC(=O)O[C@@H]([C@H]1C[C@@H](C)C2C(O1)[C@H](O)[C@@]1(C)[C@@H]3CC[C@H]4C(C)(C)[C@H](O)CC[C@@]45C[C@@]35CC[C@]21C)C(C)(C)O (stereo partly drawn) [drawing 944] | – | 1 to 10 | – |
| CC1CC(C(O)C(C)(C)O)OC2C1C1(C)CCC34CC35CCC(OC3CN(C(=O)CN6CCOCC6)CCO3)C(C)(C)C5CCC4C1(C)C2O (stereo not drawn) | – | – | % Inhibition (range) (Aβ-42, 100 umol/L): F (% inhibition of <25%) |
| CC(=O)N(Cc1cc(F)c(F)c(F)c1)CC1CC(C)C2C(O1)C(O)C1(C)C3CCC4C(C)(C)C(O)CCC45CC35CCC21C (stereo not drawn) | – | 1 to 10 | – |
| CC(=O)O[C@@H]([C@H]1C[C@@H](C)C2C(O1)[C@H](O)[C@@]1(C)[C@@H]3CC[C@H]4C(C)(C)[C@@H](O)CC[C@@]45C[C@@]35CC[C@]21C)C(C)(C)O (stereo partly drawn) [drawing 897] | ≤ 1 | – | – |
| CCC(=O)O[C@@H]([C@H]1C[C@@H](C)C2C(O1)C(O)[C@@]1(C)[C@@H]3CC[C@H]4C(C)(C)[C@@H](O[C@@H]5OC[C@@H](O)[C@H](O)[C@H]5O)CC[C@@]45C[C@@]35CC[C@]21C)C(C)(C)O (stereo partly drawn) | ≤ 1 | – | inhibition at 100 µM [1]: 25 to 75% |
| C[C@@H]1C[C@H]([C@H](O)C(C)(C)O)OC2C(=O)[C@@]3(C)[C@@H]4CC[C@H]5C(C)(C)[C@@H](O)CC[C@@]56C[C@@]46CC[C@]3(C)C21 (stereo partly drawn) [drawing 894] | – | – | inhibition at 100 µM [1]: 25 to 75% |
| CC1CC(C(=O)NC2CCC2)OC2C1C1(C)CCC34CC35CCC(O)C(C)(C)C5CCC4C1(C)C2O (stereo not drawn) | – | > 10 | – |
| C[C@@H]1C[C@H]([C@H](O)C(C)(C)O)OC2C(=O)[C@@]3(C)[C@@H]4CC[C@H]5C(C)(C)[C@@H](O[C@@H]6OC[C@@H](O)[C@H](O)[C@H]6O)CC[C@@]56C[C@@]46CC[C@]3(C)C21 (stereo partly drawn) | > 10 | – | – |
| CC1O[C@@H]([C@H]2C[C@@H](C)C3C(O2)[C@H](O)[C@@]2(C)[C@@H]4CC[C@H]5C(C)(C)[C@@H](O)CC[C@@]56C[C@@]46CC[C@]32C)C(C)(C)O1 (stereo partly drawn) | – | – | inhibition at 10 µM (Aβ-42, 10 umol/L, read-out: % Inhibition (range)): < 25% |
| C[C@@H]1C[C@H]([C@@H]2OC(=O)OC2(C)C)OC2=C1[C@@]1(C)CC[C@@]34C[C@@]35CC[C@H](O[C@@H]3OC[C@@H](O)[C@H](O)[C@H]3O)C(C)(C)[C@@H]5CC[C@H]4[C@]1(C)[C@H]2O | 1 to 10 | – | – |
| CC(=O)O[C@@H]([C@H]1C[C@@H](C)C2C(O1)[C@H](O)[C@@]1(C)[C@@H]3CC[C@H]4C(C)(C)[C@@H](OC(=O)c5cccnc5)CC[C@@]45C[C@@]35CC[C@]21C)C(C)(C)O (stereo partly drawn) [drawing 951] | ≤ 1 | – | – |
| C[C@@H]1C[C@H]([C@H](O)C(C)(C)O)OC2C1[C@@]1(C)CC[C@@]34C[C@@]35CC[C@H](O)C(C)(C)[C@@H]5CC[C@H]4[C@]1(C)[C@H]2O (stereo partly drawn) [drawing 890] | – | – | % Inhibition (range) (Aβ-42, 20 umol/L): E (% inhibition of 25-75%) |
| CC(=O)N1CC(N2CCOC(OC3CCC45CC46CCC4(C)C7C(C)CC(C(O)C(C)(C)O)OC7C(O)C4(C)C6CCC5C3(C)C)C2)C1 (stereo not drawn) | – | – | % Inhibition (range) (Aβ-42, 20 umol/L): F F (% inhibition of <25%); % Inhibition (range) (Aβ-42, 100 umol/L): F F (% inhibition of <25%) |
| CC1CC(C(O)C(C)(C)O)OC2C1C1(C)CCC34CC35CCC(OC3CN(C(=O)Cc6ccccn6)CCO3)C(C)(C)C5CCC4C1(C)C2O (stereo not drawn) | – | – | % Inhibition (range) (Aβ-42, 100 umol/L): F (% inhibition of <25%) |
| CC1CC(CNCC(F)(F)F)OC2C1C1(C)CCC34CC35CCC(O)C(C)(C)C5CCC4C1(C)C2O (stereo not drawn) | – | > 10 | – |
| CC(=O)N(C)C(C(=O)NCc1ccccc1)C1CC(C)C2C(O1)C(O)C1(C)C3CCC4C(C)(C)C(O)CCC45CC35CCC21C (stereo not drawn) | – | > 10 | – |
